Reference: PMC5674823, “Cloning, expression and identification of KTX-Sp4, a selective Kv1.3 peptidic blocker from Scorpiops pococki” (Cell & Bioscience, 2017)
Bridge positions count the residues as written; N and C are the ends. Ends that are not written are not given here.

What was measured:
mKv1.1 = test: Whole-cell patch-clamp, Kv1.1 heterologously expressed in HEK293T cells; assay type: cell-based, mouse; conditions: 1 μM peptide
Protocol: (§1) Jurkat E6-1 T cells (ATCC TIB152) and HEK293T cells (ATCC ACS4500) were maintained in RPMI medium 1640 (Invitrogen, Carlsbad, CA, USA) and Dulbecco’s modified Eagle’s medium (DMEM) (Life Technologies, GrandIsland, NY, USA), supplemented with 10% fetal bovine serum (Life Technologies), 100 units/ml penicillin, 100 μg/ml streptomycin, respectively. Cells were cultured in a humidified incubator at 37 °C with 5% CO2. The cDNAs encoding mKv1.1, mKv1.1-AEHS/PSGN, hKv1.2 and mKv1.3 [18] were subcloned into the XhoI/BamHI sites of a bicistronic vector, pIRES2-EGFP (Clontech, USA), then transiently transfected into HEK293-T cells using Lipofectamine 2000 (Invitrogen) for electrophysiological experiments.
(§2) Whole-cell patch-clamp recordings were performed using an EPC 9 amplifier (HEKA Elektronik, Lambrecht/Pfalz, Germany) at room temperature (22–24 °C). Pipettes pulled from borosilicate glass (BF 150-86-10; Sutter Instrument Company, Novato, CA, USA) had resistances of 2–4 MΩ when filled with the internal solution. The internal pipette solution for recording Kv currents on DRG neurons contained: 120 mM potassium gluconate, 20 mM KCl, 10 mM EGTA, 10 mM HEPES, 5 mM Na2-ATP, 2 mM MgCl2, 1 mM CaCl2 (pH 7.3 withKOH). […]

[1] = system: voltage-gated potassium channels on DRG cells; test: Whole-cell patch-clamp, voltage-gated K+ currents in acutely isolated DRG cells; assay type: cell-based, mouse; conditions: 1 μM peptide, +50 mV 400 ms pulse from -60 mV
Protocol: Mouse spinal columns were removed and placed in ice-cold HBSS; neurons were acutely dissociated and maintained as described. In brief, laminectomies were performed and bilateral DRG were dissected out. After removal of connective tissues, DRG were transferred to a 1 ml Ca^2+/Mg^2+-free HBSS containing 2 μl saturated NaHCO3, 0.35 mg L-cysteine and 20 U papain (Worthington, Lakewood, NJ, USA), and incubated at 37 °C for 10 min. The suspension of DRG was centrifuged, the supernatant was removed, 1 ml Ca^2+/Mg^2+-free HBSS containing 4 mg collagenase type II and 1.25 mg dispase type II (Worthington) was added and incubated at 37 °C for 10 min. After digestion, neurons were pelleted, suspended in neurobasal medium containing 2% B-27 supplement, 1% L-glutamine, 100 U/ml penicillin plus 100 μg/ml streptomycin, and 50 ng/ml nerve growth factor, plated on a 12 mm coverslip coated with poly-L-lysine (10 μg/ml) and cultured under a humidified atmosphere of 5% CO2/95% air at 37 °C for 18–24 h before use.
Whole-cell patch-clamp recordings were performed using an EPC 9 amplifier (HEKA Elektronik, Lambrecht/Pfalz, Germany) at room temperature (22–24 °C). Pipettes pulled from borosilicate glass (BF 150-86-10; Sutter Instrument Company, Novato, CA, USA) had resistances of 2–4 MΩ when filled with the internal solution. […]

mKv1.3 = target: T1, mKv1.3 (Mus musculus, UniProt P16390); test: Whole-cell patch-clamp, mKv1.3 heterologously expressed in HEK293T cells; assay type: cell-based
T1 construct: expressed in transfected cells; host or cells: HEK293T cells, pIRES2-EGFP vector
Protocol: as §1, §2

hKv1.2 = test: Whole-cell patch-clamp, Kv1.2 heterologously expressed in HEK293T cells; assay type: cell-based, human; conditions: 1 μM peptide
Protocol: as §1, §2

[2] = target: T2, endogenous Kv1.3 expressed by human Jurkat T cells (Homo sapiens, UniProt P22001); test: Whole-cell patch-clamp, endogenous Kv1.3 currents in Jurkat T cells; assay type: cell-based
T2 construct: endogenous Kv1.3 expressed by human Jurkat T cells; endogenous in cells; host or cells: Jurkat E6-1 T cells (ATCC TIB152)
Protocol: as §1, §2

mKv1.1-AEHS/PSGN = target: T3, mKv1.1-AEHS/PSGN (Mus musculus, UniProt P16388, A352P/E353S/H355G/S357N); test: Whole-cell patch-clamp, turret mutant Kv1.1-AEHS/PSGN expressed in HEK293T cells; assay type: cell-based; conditions: four Kv1.1 turret residues replaced by those of Kv1.3, mean ± SE of six experiments, SEM, read-out: IC50 on Kv1.1-AEHS/PGSN mutant channel
T3 construct: expressed in transfected cells; host or cells: HEK293T cells, pIRES2-EGFP vector
Protocol: as §1, §2

T2 sequence (P22001 whole entry): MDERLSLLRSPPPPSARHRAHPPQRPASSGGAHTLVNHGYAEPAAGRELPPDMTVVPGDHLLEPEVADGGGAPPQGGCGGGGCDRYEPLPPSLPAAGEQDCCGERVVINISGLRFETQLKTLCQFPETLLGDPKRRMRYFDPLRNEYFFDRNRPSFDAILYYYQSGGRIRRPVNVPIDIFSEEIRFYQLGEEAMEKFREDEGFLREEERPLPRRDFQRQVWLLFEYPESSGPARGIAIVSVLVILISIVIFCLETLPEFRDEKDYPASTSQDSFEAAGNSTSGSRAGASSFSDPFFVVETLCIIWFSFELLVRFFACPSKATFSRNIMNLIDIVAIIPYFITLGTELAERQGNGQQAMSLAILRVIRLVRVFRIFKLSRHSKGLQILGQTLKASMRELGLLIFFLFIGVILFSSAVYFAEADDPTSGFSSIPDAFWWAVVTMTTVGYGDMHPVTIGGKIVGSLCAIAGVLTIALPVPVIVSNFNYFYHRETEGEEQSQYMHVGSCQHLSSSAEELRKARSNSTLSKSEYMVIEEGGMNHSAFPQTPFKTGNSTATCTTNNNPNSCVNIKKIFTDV
T1 sequence (P16390 whole entry): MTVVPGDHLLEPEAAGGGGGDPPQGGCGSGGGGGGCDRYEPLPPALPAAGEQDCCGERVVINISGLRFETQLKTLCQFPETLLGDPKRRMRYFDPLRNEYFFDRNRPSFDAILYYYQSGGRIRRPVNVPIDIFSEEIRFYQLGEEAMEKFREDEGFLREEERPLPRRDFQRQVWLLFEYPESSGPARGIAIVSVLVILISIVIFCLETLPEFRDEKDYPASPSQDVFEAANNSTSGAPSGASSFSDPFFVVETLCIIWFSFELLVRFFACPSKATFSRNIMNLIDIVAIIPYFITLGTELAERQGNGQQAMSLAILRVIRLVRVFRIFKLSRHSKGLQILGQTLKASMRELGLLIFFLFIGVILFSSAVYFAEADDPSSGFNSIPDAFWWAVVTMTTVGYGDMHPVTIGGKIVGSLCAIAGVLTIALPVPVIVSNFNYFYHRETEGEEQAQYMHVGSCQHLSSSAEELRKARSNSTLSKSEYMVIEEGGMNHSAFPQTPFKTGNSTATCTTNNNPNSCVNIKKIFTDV
T3 sequence (P16388 whole entry A352P/E353S/H355G/S357N): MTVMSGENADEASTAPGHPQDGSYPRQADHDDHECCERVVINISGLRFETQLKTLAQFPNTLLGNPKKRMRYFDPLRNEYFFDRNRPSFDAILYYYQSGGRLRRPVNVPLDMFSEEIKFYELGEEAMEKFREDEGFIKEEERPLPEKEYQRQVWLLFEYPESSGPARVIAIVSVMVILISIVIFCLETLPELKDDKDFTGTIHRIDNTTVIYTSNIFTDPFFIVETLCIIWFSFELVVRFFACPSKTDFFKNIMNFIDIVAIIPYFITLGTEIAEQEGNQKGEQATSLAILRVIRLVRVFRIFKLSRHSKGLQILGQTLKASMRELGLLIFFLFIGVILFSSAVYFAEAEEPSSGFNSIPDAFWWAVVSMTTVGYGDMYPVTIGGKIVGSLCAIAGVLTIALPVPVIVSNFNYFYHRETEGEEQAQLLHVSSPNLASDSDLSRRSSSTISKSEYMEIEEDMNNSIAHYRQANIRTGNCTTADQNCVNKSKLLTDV

In the case of “AFPSENPTGGCPLSDNVCSSYCKKNKFGNEGKCHGTICKCSIK (disulfide 11-33, 18-38, 22-40 (inferred)) [KTX-Sp4]”, the “Reduction of maximum current of Kv1.1 channel” value (mKv1.1) is reported as “about 20.85%”, the “Inhibitory effect on voltage-gated K+ currents on DRG cells” value [1] is reported as “no significant inhibitory effect” and the IC50 (mKv1.3; HEK293T cells, steady-state current at end of depolarizing pulse, n = 10, read-out: IC50 on wild-type mKv1.3-mediated steady-state current) is reported as 24.7 ± 10.8 nM. For the same sequence, the “Blocking activity on Kv1.3, times weaker than that of J123” value (mKv1.3; comparison with J123) was 31 times, the “Reduction of maximum current of Kv1.2 channel” value (hKv1.2) was about 7.23% and the “Reversibility of suppressive effect on Kv1.3 after washout” value ([2]; Jurkat T cells, bath application, washout) was “partially reversible”. The IC50 ([2]; whole-cell patch-clamp, +50 mV 400 ms pulse from -60 mV, almost zero cytosolic Ca2+ pipette solution, Hill fit, n = 8, read-out: IC50 of inhibition of Kv1.3 current in Jurkat T cells) was 235 ± 3.36 nM and the IC50 (mKv1.1-AEHS/PSGN) was 12.1 ± 4.08 nM.
